Experimental data published in patent US20040101576A1, “IMMUNOPOTENTIATORS” (priority 1997, published 2004).

Test system: Langerhans' cells
Conditions: antigen (trinitrobenzenesulfonic acid, 1 mg/ml) added, Langerhans' cells UV irradiated, 3 mM glutathione added during irradiation; antigen only 17,500, antigen + UV 5,000 (FIG. 1)
Method: An antigen (trinitrobenzenesulfonic acid, 1 mg/ml) was added to Langerhans' cells and, after cleaning, they were mixed and cultured with T cells obtained by purifying lymph gland cell floating fluid with a nylon fiber column (Wako).

N[C@@H](CCC(=O)N[C@@H](CS)C(=O)NCC(=O)O)C(=O)O [glutathione]
multiplication of the T cells: 11,000
